In PMC8787749, “4-Deoxy-4-fluoro-GalNAz (4FGalNAz) Is a Metabolic Chemical Reporter of O-GlcNAc Modifications, Highlighting the Notable Substrate Flexibility of O-GlcNAc Transferase” (ACS Chemical Biology, 2021):

How the values were obtained:
Test in all cases: UDP-Glo UDP release assay
Format in all cases: biochemical
GALNT2 = biological target: T1, GALNT2 (Homo sapiens, UniProt Q10471); details: 50 μM UDP sugar, 50 μM MUC5AC peptide, 150 nM enzyme, 25 mM Tris-HCl pH 7.4, 10 mM MnCl2, room temperature
T1 construct: truncated, residues 75-572 as printed, hT2-pKN55 vector, secreted from Pichia pastoris SMD1163, Ni-NTA purified
T1 sequence (Q10471 75-571): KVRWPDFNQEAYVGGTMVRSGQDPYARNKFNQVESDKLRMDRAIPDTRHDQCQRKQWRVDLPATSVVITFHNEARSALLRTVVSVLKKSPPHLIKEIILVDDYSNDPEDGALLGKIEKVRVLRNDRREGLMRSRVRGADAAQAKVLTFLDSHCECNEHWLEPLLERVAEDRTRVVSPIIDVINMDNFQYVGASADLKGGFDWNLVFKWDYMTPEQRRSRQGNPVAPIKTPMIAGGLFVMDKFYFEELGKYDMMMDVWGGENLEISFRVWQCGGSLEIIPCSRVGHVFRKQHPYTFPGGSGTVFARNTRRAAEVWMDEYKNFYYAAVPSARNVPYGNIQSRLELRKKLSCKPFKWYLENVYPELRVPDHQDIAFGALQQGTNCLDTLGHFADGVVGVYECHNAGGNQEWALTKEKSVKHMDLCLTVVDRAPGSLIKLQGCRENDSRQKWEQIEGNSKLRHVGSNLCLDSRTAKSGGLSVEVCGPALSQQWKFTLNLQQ

GALNT1 = biological target: T2, GALNT1 (Homo sapiens, UniProt Q10472); details: 50 μM UDP sugar, 50 μM MUC5AC peptide, 10 nM enzyme, 25 mM Tris-HCl pH 7.4, 10 mM MnCl2, room temperature
T2 construct: truncated, residues 41-559, plasmid hT1-pKN55, secreted from Pichia pastoris SMD1163, Ni-NTA purified
T2 sequence (Q10472 41-559): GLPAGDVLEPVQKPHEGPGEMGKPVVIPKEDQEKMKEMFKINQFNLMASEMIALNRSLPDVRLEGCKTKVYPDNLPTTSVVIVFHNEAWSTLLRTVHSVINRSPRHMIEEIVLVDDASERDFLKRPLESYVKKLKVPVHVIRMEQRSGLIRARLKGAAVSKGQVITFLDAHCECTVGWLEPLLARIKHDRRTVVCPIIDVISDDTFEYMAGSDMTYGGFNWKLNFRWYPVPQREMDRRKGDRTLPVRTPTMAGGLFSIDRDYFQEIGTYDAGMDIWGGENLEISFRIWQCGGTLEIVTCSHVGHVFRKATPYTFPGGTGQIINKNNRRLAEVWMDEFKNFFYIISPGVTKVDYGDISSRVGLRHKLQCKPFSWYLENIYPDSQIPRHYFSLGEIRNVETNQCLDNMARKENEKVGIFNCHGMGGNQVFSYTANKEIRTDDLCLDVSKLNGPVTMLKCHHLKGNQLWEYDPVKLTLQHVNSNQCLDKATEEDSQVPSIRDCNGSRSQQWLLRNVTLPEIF

ncOGT (OGT) = biological target: T3, ncOGT (OGT) (Homo sapiens, UniProt O15294); details: 40 μM UDP sugar, 125 μM CKII3K peptide, 300 nM enzyme, 25 mM Tris-HCl pH 7.4, 150 mM NaCl, room temperature
T3 sequence (O15294 2-1046): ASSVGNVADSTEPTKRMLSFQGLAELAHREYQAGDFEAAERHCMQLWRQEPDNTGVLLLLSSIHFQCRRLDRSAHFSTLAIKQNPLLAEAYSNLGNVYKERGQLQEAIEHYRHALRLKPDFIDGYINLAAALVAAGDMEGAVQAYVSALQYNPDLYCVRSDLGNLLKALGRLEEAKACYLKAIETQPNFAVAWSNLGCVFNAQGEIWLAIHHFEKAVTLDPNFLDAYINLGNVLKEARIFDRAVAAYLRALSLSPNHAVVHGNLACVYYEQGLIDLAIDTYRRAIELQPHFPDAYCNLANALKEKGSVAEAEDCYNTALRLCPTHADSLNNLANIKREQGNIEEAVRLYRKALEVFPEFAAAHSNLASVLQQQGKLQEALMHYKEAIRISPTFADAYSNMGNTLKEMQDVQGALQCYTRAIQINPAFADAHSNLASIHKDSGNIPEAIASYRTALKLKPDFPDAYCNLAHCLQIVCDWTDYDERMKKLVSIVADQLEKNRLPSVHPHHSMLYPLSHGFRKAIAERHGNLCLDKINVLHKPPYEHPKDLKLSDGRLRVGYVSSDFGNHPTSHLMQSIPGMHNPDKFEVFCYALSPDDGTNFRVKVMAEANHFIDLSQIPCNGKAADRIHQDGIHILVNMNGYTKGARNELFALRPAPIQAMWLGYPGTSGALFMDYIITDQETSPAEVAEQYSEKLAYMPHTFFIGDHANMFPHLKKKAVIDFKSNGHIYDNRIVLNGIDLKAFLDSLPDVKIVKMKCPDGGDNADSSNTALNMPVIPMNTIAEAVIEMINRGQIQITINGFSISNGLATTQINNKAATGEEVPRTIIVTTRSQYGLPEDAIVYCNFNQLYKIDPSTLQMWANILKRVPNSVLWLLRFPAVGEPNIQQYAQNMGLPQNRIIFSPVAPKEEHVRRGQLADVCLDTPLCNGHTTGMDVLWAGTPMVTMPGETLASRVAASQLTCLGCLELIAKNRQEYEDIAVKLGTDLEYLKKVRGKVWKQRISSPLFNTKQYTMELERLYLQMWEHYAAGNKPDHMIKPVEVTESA

Compound	UDP-Glo UDP release assay (GALNT2)	UDP-Glo UDP release assay (GALNT1)	UDP-Glo UDP release assay (ncOGT (OGT))
CC(=O)N[C@H]1[C@@H](OP(=O)(O)OP(=O)(O)OC[C@H]2O[C@@H](n3ccc(=O)[nH]c3=O)[C@H](O)[C@@H]2O)O[C@H](CO)[C@H](O)[C@@H]1O [UDP-GalNAc]	despite clear turnover of the native UDP-GalNAc substrate	despite clear turnover of the native UDP-GalNAc substrate	
CC(=O)N[C@H]1[C@@H](OP(=O)(O)OP(=O)(O)OC[C@H]2O[C@@H](n3ccc(=O)[nH]c3=O)[C@H](O)[C@@H]2O)O[C@H](CO)[C@@H](O)[C@@H]1O [UDP-GlcNAc]			OGT accepted UDP-GalNAc but less efficiently than UDP-GlcNAc
